Data published in the supplement of paper PMC10307832.

What was measured:
Assay in all cases: relative viability (nuclei count vs DMSO), 5 days (fraction); higher = more cells survive
[1] = compound: CC(C)CCN1c2nc(Nc3cc(F)c(O)c(F)c3)ncc2N(C)C(=O)C1C [BI-D1870] + COc1cccc2cc(-c3nc([C@H]4CC[C@H](C(=O)O)CC4)n4ncnc(N)c34)[nH]c12 [OSI-027] (partner 0.5 µM)
In short: (§1)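 Lung cancer cell lines were pin-tool dosed in 1536-well plates on the day after seeding, with either a lone drug or a fixed anchor-drug dose plus five library-drug doses (not always all listed) in √10 steps. Nuclei were counted on 4× images after 5 days. Relative viability is the ratio of treated-well to vehicle-well nuclei counts, with each value a median of duplicate plates.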

[2] = compound: CC(C)CCN1c2nc(Nc3cc(F)c(O)c(F)c3)ncc2N(C)C(=O)C1C [BI-D1870] + CS(=O)(=O)N1CCN(Cc2cc3nc(-c4cccc5[nH]ncc45)nc(N4CCOCC4)c3s2)CC1 [Pictilisib] (partner 1 µM)
In short: as §1

[3] = compound: O=c1ncccn1[C@@H]1O[C@H](CO)[C@@H](O)[C@H]1O [Zebularine] + CS(=O)(=O)CCNCc1ccc(-c2ccc3ncnc(Nc4ccc(OCc5cccc(F)c5)c(Cl)c4)c3c2)o1 [Lapatinib] (partner 2 µM)
In short: as §1

[4] = compound: O=c1ncccn1[C@@H]1O[C@H](CO)[C@@H](O)[C@H]1O [Zebularine] + Cc1nc(Nc2ncc(C(=O)Nc3c(C)cccc3Cl)s2)cc(N2CCN(CCO)CC2)n1 [Dasatinib] (partner 0.075 µM)
In short: as §1

Row | Cell Line | relative viability ([1]; first compound 0.04 µM) | relative viability ([1]; first compound 0.1265 µM) | relative viability ([1]; first compound 0.4 µM) | relative viability ([1]; first compound 1.265 µM) | relative viability ([1]; first compound 4 µM) | relative viability ([2]; first compound 0.04 µM) | relative viability ([2]; first compound 0.1265 µM) | relative viability ([2]; first compound 0.4 µM) | relative viability ([2]; first compound 1.265 µM) | relative viability ([2]; first compound 4 µM) | relative viability ([3]; first compound 1 µM) | relative viability ([3]; first compound 3.162 µM) | relative viability ([3]; first compound 10 µM) | relative viability ([3]; first compound 31.62 µM) | relative viability ([3]; first compound 100 µM) | relative viability ([4]; first compound 1 µM) | relative viability ([4]; first compound 3.162 µM) | relative viability ([4]; first compound 10 µM) | relative viability ([4]; first compound 31.62 µM) | relative viability ([4]; first compound 100 µM)
1 | NCI-H2009 | 0.742 | 0.571 | 0.615 | 0.559 | 0.255 | 0.949 | 0.77 | 0.719 | 0.633 | 0.318 | 0.941 | 0.755 | 0.753 | 0.757 | 0.359 | 0.371 | 0.316 | 0.263 | 0.309 | 0.231
2 | NCI-H2405 | 0.675 | 0.634 | 0.643 | 0.688 | 0.642 | 0.549 | 0.479 | 0.442 | 0.458 | 0.418 | 1.06 | 0.946 | 0.906 | 0.963 | 0.76 | 0.229 | 0.213 | 0.207 | 0.188 | 0.211
3 | NCI-H1755 | 0.705 | 0.714 | 0.651 | 0.847 | 0.683 | 0.474 | 0.408 | 0.469 | 0.431 | 0.35 | 1.17 | 0.991 | 0.802 | 1.11 | 0.497 | 0.494 | 0.452 | 0.342 | 0.49 | 0.435
4 | HCC-78 | 0.629 | 0.346 | 0.401 | 0.427 | 0.309 | 0.213 | 0.185 | 0.249 | 0.21 | 0.236 | 1.1 | 0.43 | 0.871 | 0.729 | 0.181 | 0.385 | 0.428 | 0.22 | 0.37 | 0.278
5 | LOU-NH91 | 0.797 | 0.701 | 0.7 | 0.75 | 0.57 | 0.413 | 0.503 | 0.504 | 0.587 | 0.44 | 0.715 | 0.731 | 0.712 | 0.705 | 0.606 | 0.569 | 0.595 | 0.553 | 0.571 | 0.473
6 | NCI-H3122 | 1.08 | 0.876 | 0.932 | 1.07 | 0.619 | 0.632 | 0.434 | 0.604 | 0.653 | 0.62 | 1.12 | 1.05 | 0.911 | 1.04 | 1.05 | 0.981 | 0.79 | – | 0.889 | 0.918
7 | HCC-827 | 0.74 | 0.738 | 0.71 | 0.76 | 0.711 | 0.96 | 1.05 | 1.08 | 1.14 | 0.91 | 0.209 | 0.175 | 0.192 | 0.188 | 0.191 | 0.3 | 0.292 | 0.249 | 0.322 | 0.238
8 | SK-LU-1 | 0.386 | 0.305 | 0.26 | 0.299 | 0.199 | 0.543 | 0.544 | 0.604 | 0.576 | 0.343 | 0.896 | 0.9 | 0.545 | 0.676 | 0.448 | 0.168 | 0.184 | 0.162 | 0.172 | 0.144
9 | NCI-H1975 | 0.755 | 0.58 | 0.54 | 0.559 | 0.457 | 0.297 | 0.276 | 0.288 | 0.299 | 0.208 | 0.982 | 0.872 | 0.478 | 0.392 | 0.267 | 0.328 | 0.408 | 0.253 | 0.247 | 0.173
10 | NCI-H1651 | 0.738 | 0.608 | 0.668 | 0.753 | 0.63 | 0.549 | 0.423 | 0.566 | 0.516 | 0.551 | 0.917 | 1.07 | – | 0.94 | 0.515 | 0.399 | 0.359 | 0.343 | 0.53 | 0.247
11 | LCLC-97TM1 | 0.682 | 0.61 | 0.557 | 0.727 | 0.472 | 0.183 | 0.151 | 0.175 | 0.21 | 0.153 | 0.784 | 0.665 | 0.451 | 0.376 | 0.139 | 0.868 | 0.844 | 0.509 | 0.577 | 0.315
12 | NCI-H727 | 0.559 | 0.518 | 0.646 | 1.01 | 0.517 | 0.425 | 0.35 | 0.354 | 0.509 | 0.366 | 0.724 | 0.797 | 0.65 | 0.948 | 0.772 | 0.383 | – | – | 0.349 | 0.356
13 | NCI-H1355 | 0.464 | 0.36 | 0.361 | 0.425 | 0.308 | 0.433 | 0.365 | 0.398 | 0.504 | 0.323 | 1.31 | 0.851 | 0.854 | 0.681 | 0.357 | 0.757 | 0.746 | 0.525 | 0.617 | 0.458
14 | HOP-62 | 0.993 | 0.819 | 0.791 | 0.849 | 0.699 | 0.606 | 0.745 | 0.726 | 0.554 | 0.669 | 1.07 | 0.783 | 0.467 | 0.368 | 0.144 | 0.729 | 0.711 | 0.421 | 0.462 | 0.253
15 | NCI-H2085 | 0.745 | 0.6 | 0.674 | 0.602 | 0.337 | 0.439 | 0.494 | 0.413 | 0.518 | 0.558 | 0.833 | 0.747 | 0.647 | 0.773 | 0.633 | 0.209 | 0.226 | 0.243 | 0.222 | 0.246
